Measurements taken from ChEMBL document CHEMBL1138059, “Discovery of a nanomolar inhibitor of the human murine double minute 2 (MDM2)-p53 interaction through an integrated, virtual database screening strategy” (J Med Chem, 2006).
The source made the active and inactive calls. The rule behind the calls is not given here.

Legend:
[1] = test system: HCT-116; test: Induction of p53 accumulation in isogenic HCT116 p53-/- cells; format: functional, cell-based; conditions: Homo sapiens
[2] = test system: HCT-116; test: Induction of MDM2 accumulation in isogenic HCT116 p53-/- cells; format: functional, cell-based; conditions: Homo sapiens
[3] = test system: HCT-116; test: Induction of MDM2 accumulation in HCT116 cells expressing wild type p53; format: functional, cell-based; conditions: Homo sapiens
[4] = biological target: E3 ubiquitin-protein ligase Mdm2 (Homo sapiens, UniProt Q00987)
E3 ubiquitin-protein ligase Mdm2, sequence (Q00987 whole entry): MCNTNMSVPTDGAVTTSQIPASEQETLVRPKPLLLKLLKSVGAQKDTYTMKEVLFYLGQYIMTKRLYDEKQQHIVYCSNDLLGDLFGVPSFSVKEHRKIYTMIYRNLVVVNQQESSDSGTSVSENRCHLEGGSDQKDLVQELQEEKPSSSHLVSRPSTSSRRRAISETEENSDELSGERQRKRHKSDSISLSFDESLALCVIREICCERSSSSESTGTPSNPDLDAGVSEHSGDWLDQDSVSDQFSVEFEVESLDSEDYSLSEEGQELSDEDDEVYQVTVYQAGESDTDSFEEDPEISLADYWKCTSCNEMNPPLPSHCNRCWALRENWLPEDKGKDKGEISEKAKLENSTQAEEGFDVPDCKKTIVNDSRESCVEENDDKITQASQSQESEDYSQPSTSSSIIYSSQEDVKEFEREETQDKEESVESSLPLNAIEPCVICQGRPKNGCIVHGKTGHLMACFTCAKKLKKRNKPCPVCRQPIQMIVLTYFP

[5] = test system: HCT-116; test: Induction of p21 accumulation in HCT116 cells expressing wild type p53; format: functional, cell-based; conditions: Homo sapiens
[6] = test system: HCT-116; test: Induction of p53 accumulation in HCT116 cells expressing wild type p53; format: functional, cell-based; conditions: Homo sapiens
[7] = test system: HCT-116; test: Induction of p21 accumulation in isogenic HCT116 p53-/- cells; format: functional, cell-based; conditions: Homo sapiens

How did the Activity [1] turn out when Cc1ccc2ccc(C(Nc3ccccc3)c3ccccc3)c(O)c2n1 (configuration not stated) was run?
The Activity was “inactive”.

What about the Activity [2] of the same molecule?
The Activity was “inactive”.

What about the Activity [3] of the same molecule?
Its Activity is “Dose-dependent effect”.

What about the Ki [4] of the same molecule?
Its Ki is 0.12 µM.

And the Activity [5]?
Its Activity is “Dose-dependent effect”.

And the Activity [6]?
The Activity was “Dose-dependent effect”.

And the Activity [7]?
The Activity was “inactive”.
